Measurements taken from patent publication US20060148860A1, “Substituted p-phenyl carbamates” (Novo Nordisk A/S, priority 2003, published 2006).

Biological target: T1, hormone sensitive lipase (HSL) (Homo sapiens, UniProt Q05469)
T1 sequence (Q05469 1-1076): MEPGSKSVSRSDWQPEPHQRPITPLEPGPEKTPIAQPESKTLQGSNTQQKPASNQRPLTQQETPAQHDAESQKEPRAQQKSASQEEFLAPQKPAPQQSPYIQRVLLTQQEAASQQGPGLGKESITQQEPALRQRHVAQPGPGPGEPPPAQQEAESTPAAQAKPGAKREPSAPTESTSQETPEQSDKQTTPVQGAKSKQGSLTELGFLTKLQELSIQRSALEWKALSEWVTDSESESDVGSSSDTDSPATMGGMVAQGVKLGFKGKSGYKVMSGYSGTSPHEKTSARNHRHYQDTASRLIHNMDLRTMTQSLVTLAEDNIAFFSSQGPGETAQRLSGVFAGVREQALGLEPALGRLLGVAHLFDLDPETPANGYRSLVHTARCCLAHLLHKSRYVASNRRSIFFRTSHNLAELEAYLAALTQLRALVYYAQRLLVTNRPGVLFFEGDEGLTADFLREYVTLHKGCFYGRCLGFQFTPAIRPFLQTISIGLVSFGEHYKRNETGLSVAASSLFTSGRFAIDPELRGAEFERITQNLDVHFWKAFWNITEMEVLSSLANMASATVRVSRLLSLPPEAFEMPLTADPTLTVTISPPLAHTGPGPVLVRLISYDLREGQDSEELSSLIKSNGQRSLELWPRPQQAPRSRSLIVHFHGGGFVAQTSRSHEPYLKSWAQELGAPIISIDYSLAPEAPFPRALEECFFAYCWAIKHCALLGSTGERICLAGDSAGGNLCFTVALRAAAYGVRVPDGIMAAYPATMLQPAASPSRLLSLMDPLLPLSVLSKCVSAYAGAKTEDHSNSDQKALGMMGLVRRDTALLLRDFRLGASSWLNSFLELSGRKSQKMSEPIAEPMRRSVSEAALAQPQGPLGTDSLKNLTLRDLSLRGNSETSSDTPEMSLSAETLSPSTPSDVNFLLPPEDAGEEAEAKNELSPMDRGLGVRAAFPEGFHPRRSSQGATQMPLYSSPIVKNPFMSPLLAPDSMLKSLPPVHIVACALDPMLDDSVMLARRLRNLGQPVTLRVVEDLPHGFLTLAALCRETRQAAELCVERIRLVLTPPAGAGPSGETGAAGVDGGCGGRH
Assay: 3190.1: percent inhibition of hormone sensitive lipase at 10 μM (fluorochrome-labeled triacylglyceride emulsion, HSL_FL)
Assay type: biochemical
Settings: 10 μM sample concentration; % activity relative to non-inhibited sample (no compound); 30 min pre-incubation at 25° C., 120 min at 37° C.
From the text: Materials. The Hormone-sensitive lipase was provided by Dr. Cecilia Holm, from Lund University Sweden or produced and purified by Novo Nordisk (NN) using the reagents and protocols used by Dr. Holm. The substrates used are: ^3H-labeled triolein (TO) from Amersham, Buckinghamshire, U.K. cat No. TRA191; 5-20 Ci/mmol dissolved in toluene, triolein (Sigma, Cat. No. T-1740), fluorochrome-labeled triacylglyceride (cis-octadec-9-enoic acid 2-[12-(7-nitrobenzo[1,2,5]oxadiazol-4-ylamino)dodecanoyloxy]-1-cis-octadec-9-enoyloxymethyl-ethyl ester) prepared by Novo Nordisk (NN) by conventional methods, and 1,3-(di[^3H]-stearin), 2-(PEG-Biotin)glycerol prepared in collaboration with Amersham Pharmacia Biotech, UK and described in WO 01/073442. Phosphatidyl choline (PC) and phosphatidyl inositol (PI) are from Sigma (St Luis Mo. cat. Nos. P-3556 and P-5954 respectively). All other reagents are of commercial grade and obtained from various commercial sources.
3190.1: Assay for determination of percent inhibition of hormone sensitive lipase by compound at 10 μM sample concentration.
A lipid emulsion with fluorochrome-labeled triacylglyceride and phospholipid is used as substrate with a standard concentration of highly purified HSL (12 μg/mL initial concentration corresponding to 600 ng/mL final concentration). BSA is added as product acceptor. The transfer of the fluorochrome from the lipid phase to the water (BSA) phase changes the fluorescent properties of the fluorochrome. The changes can be monitored on a fluorimeter with an excitation wavelength of 450 nm and an emission wavelength of 545 nm.
Compound and HSL (20 μL compound, 10 μL enzyme and 70 μL PED-BSA buffer) is pre-incubated for 30 min at 25° C. before addition of substrate (100 μL). Amount of formed product is measured after 120 min incubation at 37° C.
Results are given as percent activity relative to a non-inhibited sample (no compound).

Compound | activity at 10 µM [%]
CN(C(=O)Oc1ccc(CCOc2ccncc2)cc1)c1ccccc1 [Example 1, Methyl-phenyl-carbamic acid 4-[2-(pyridin-4-yloxy)-ethyl]-phenyl ester] | 1
CN(C(=O)Oc1ccc(CSc2ncc[nH]2)cc1)c1ccccc1 [Example 2, Methyl-phenyl-carbamic acid 4-(1H-imidazol-2-ylsulfanylmethyl)-phenyl ester] | 1
CN(C(=O)Oc1ccc(CCSc2ncc[nH]2)cc1)c1ccccc1 [Example 3, Methyl-phenyl-carbamic acid 4-[2-(1H-imidazol-2-ylsulfanyl)-ethyl]-phenyl ester] | 1
Cc1cccc(Cc2ccc(OC(=O)N(C)c3ccccc3)cc2)n1 [Example 4, Methyl-phenyl-carbamic acid 4-(6-methyl-pyridin-2-ylmethyl)-phenyl ester] | 5
